Data published in patent US20090326008A1, “NF-kappa B Inhibitor” (priority 2006, published 2009).

Tests used:
Format in all cases: cell-based, human
Settings in all cases: IL-1β-stimulated DMSO-treated cells = 100%, ACTB reference
COX2 = test: Relative COX2 mRNA expression in IL-1β-stimulated MKN-45 cells (real-time PCR)
Experimental: (§1) RNA was extracted from the cells used in Example 2 according to the manufacturer's protocol for ABI Prism 6100 Nucleic Acid PrepStation (a nucleic acid isolation system, product of Applied Biosystems). More specifically, after removal of the culture supernatant and washing with 1 mL of PBS, 250 μL of Nucleic Acid Purification Lysis Solution (Part No. 4305895, Applied Biosystems) was added, and then agitated using a shaker for 2 to 3 minutes. The Lysis Solution containing the cell lysate was collected, and the total amount was transferred to the wells of RNA Purification Tray (Part No. 4305673, Applied Biosystems), which had been pre-wet with 40 μL of Nucleic Acid Purification Wash Solution I (Part No. 4305891, Applied Biosystems) beforehand. Aspiration (20% pressure) was performed for 2 minutes to adsorb the sample onto the RNA Purification Tray, followed by sequentially adding and aspirating (20% pressure, 2 min.) 500 μL of Wash Solution I, Nucleic Acid Purification (Part No. 4305891, Applied Biosystems), 400 μL of Wash Solution II, Nucleic Acid Purification (Part No. 4305890, product of Applied Biosystems), 400 μL of the Wash Solution II, and 300 μL of the Wash Solution II in that order. Aspiration (90% pressure) was performed for 5 minutes to remove the water content from the RNA Purification Trays. After addition of 150 μL of Elution Solution, Nucleic Acid Purification (Part No. 4305893, product of Applied Biosystems), aspiration (20% pressure) was performed for 2 minutes, while collecting the outflow. This was used as collected RNA solution.
(§2) Absorbance of the collected RNA solution at 260 nm was measured using a microplate spectrophotometer (“SpectraMax Plus”, product of Molecular Devices) with an analysis software (“SOFTmaxPRO ver.3.1.2”, product of Molecular Devices), and the RNA concentration was determined from the absorbance. Likewise, absorbance at 280 nm was measured and the purity of the RNA was determined using the analysis software.
(§3) cDNA was synthesized according to the manufacturer's protocol for TaqMan® Reverse Transcription Reagents (Part No. N808-0234, product of Applied Biosystems). More specifically, about 0.5 μg of RNA, 2.5 μL of 10×RT buffer, 5.5 μL of MgCl2 solution, 5 μL of dNTP mixture, 1.25 μL of random hexamer (primers), 0.5 μL of RNase inhibitor, and 0.63 μL of MultiScribe Reverse Transcriptase (product of Applied Biosystems) were added to each collected RNA sample in a tube, and DEPC-treated water was added to make a total volume of 25 μL and stirred. A reaction consisting of 25° C. for 10 minutes, 48° C. for 30 minutes, and 95° C. for 5 minutes was performed using a PCR thermal cycler (“TaKaRa PCR Thermal Cycler Dice”, product of Takara Bio Inc.) to prepare a cDNA solution.
(§4) PCR was performed according to the manufacturer's protocol for TaqMan® Gene Expression Assays (product of Applied Biosystems). More specifically, 5 μL of TaqMan® Fast Universal PCR Master Mix (product of Applied Biosystems), 0.5 μL of TaqMan® Gene Expression Assays for the target gene (gene-specific probe and primer sets, product of Applied Biosystems), and 4.5 μL of the above-obtained cDNA solution were added to each sample and stirred. A PCR reaction consisting of heating at 95° C. for 20 seconds, followed by 40 cycles consisting of heating at 95° C. for 3 seconds and annealing and extension at 60° C. for 30 seconds was performed using a real-time PCR device (“Applied Biosystems 7500 Real-Time PCR System”) with SDS v1.4 Software (product of Applied Biosystems). Threshold cycle (Ct) values were calculated using the software.
(§5) The Assay IDs of the TaqMan® Gene Expression Assays for the target genes used are as follows:
(§6) The expression level of each gene was determined according to the following formula using the level of ACTB as a reference standard.
(§7) (Relative mRNA expression level)=2̂−{(Ct value of the target gene)−(Ct value of ACTB)} […]

TNFα = test: Relative TNFα mRNA expression in IL-1β-stimulated MKN-45 cells (real-time PCR)
Experimental: as §1, §2, §3, §4, §5, §6, §7

IL-8 = test: Relative IL-8 mRNA expression in IL-1β-stimulated MKN-45 cells (real-time PCR)
Experimental: as §1, §2, §3, §4, §5, §6, §7

## COc1ccc(CC2SC(=S)NC2=O)c2c1N(CCC(C)C)C(=O)CC2 (stereo not drawn) [Test Compound 965]
COX2
  COX2 relative mRNA expression level, Mean: 37.6%
TNFα
  TNFa relative mRNA expression level, Mean: 63.0%
IL-8
  IL-8 relative mRNA expression level, Mean: 61.2%
